The target in assay [1] is VEGFR2 (KDR) kinase, purified cytoplasmic domain KDR protein (Homo sapiens (Human), UniProt P35968). In words: VEGFR2 Kinase Assay. The note with it: 2.7 μM ATP, poly-Glu-Tyr (4:1) substrate, 15 minute incubation at 30° C. Type of assay: biochemical. The method, then: (§1) Biochemical KDR kinase assays were performed in 96 well microtiter plates that were coated overnight with 75 μg/well of poly-Glu-Tyr (4:1) in 10 mM Phosphate Buffered Saline (PBS), pH 7.4. The coated plates were washed with 2 mls per well PBS+0.05% Tween-20 (PBS-T), blocked by incubation with PBS containing 1% BSA, then washed with 2 mls per well PBS-T prior to starting the reaction. Reactions were carried out in 100 μL reaction volumes containing 2.7 μM ATP in kinase buffer (50 mM Hepes buffer pH 7.4, 20 mM MgCl2, 0.1 mM MnCl2 and 0.2 mM Na3VO4). Test compounds were reconstituted in 100% DMSO and added to the reaction to give a final DMSO concentration of 5%. Reactions were initiated by the addition 20 ul per well of kinase buffer containing 200-300 ng purified cytoplasmic domain KDR protein (BPS Bioscience, San Diego, Calif.). Following a 15 minute incubation at 30° C., the reactions were washed 2 mls per well PBS-T. 100 μl of a monoclonal anti-phosphotyrosine antibody-peroxidase conjugate diluted 1:10,000 in PBS-T was added to the wells for 30 minutes. Following a 2 mls per well wash with PBS-Tween-20, 100 μl of O-Phenylenediamine Dihydrochloride in phosphate-citrate buffer, containing urea hydrogen peroxide, was added to the wells for 7-10 minutes as a colorimetric substrate for the peroxidase. The reaction was terminated by the addition of 100 μl of 2.5N H2SO4 to each well and read using a microplate ELISA reader set at 492 nm. IC50 values for compound inhibition were calculated directly from graphs of optical density (arbitrary units) versus compound concentration following subtraction of blank values.
VEGFR2 (KDR) kinase, purified cytoplasmic domain KDR protein, sequence (P35968 786-1356, species assumed): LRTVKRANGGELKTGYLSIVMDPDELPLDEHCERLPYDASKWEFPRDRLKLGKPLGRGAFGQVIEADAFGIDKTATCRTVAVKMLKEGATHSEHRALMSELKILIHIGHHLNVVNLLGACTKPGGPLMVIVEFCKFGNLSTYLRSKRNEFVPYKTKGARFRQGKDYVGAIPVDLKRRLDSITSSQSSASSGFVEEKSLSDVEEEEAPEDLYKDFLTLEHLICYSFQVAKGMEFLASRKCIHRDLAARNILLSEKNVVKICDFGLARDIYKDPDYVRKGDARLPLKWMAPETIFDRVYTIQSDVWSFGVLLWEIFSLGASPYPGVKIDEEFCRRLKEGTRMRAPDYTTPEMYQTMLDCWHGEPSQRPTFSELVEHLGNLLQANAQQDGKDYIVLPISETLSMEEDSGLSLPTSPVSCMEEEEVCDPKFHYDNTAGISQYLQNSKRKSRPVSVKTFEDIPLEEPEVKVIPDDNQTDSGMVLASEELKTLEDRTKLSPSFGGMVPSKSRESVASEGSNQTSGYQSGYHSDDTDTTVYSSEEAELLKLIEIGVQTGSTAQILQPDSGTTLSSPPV

For assay [2], the target named is PDGFRβ kinase, purified cytoplasmic domain PDGFR-b protein (Homo sapiens (Human), UniProt P09619). The assay is described as follows: PDGFRβ Kinase Assay. The class given is biochemical. The settings on record: 36 μM ATP, poly-Glu-Tyr (4:1) substrate, 60 minute incubation at 30° C. The method, then:
as §1, with “Biochemical PDGFRβ” for “Biochemical KDR”, “75 μg” for “75 μg/well”, “containing 36” for “containing 2.7”, “domain PDGFR-b” for “domain KDR”, “protein (Millipore).” for “protein (BPS Bioscience, San Diego, Calif.).”, “a 60” for “a 15”

PDGFRβ kinase, purified cytoplasmic domain PDGFR-b protein, sequence (P09619 554-1106): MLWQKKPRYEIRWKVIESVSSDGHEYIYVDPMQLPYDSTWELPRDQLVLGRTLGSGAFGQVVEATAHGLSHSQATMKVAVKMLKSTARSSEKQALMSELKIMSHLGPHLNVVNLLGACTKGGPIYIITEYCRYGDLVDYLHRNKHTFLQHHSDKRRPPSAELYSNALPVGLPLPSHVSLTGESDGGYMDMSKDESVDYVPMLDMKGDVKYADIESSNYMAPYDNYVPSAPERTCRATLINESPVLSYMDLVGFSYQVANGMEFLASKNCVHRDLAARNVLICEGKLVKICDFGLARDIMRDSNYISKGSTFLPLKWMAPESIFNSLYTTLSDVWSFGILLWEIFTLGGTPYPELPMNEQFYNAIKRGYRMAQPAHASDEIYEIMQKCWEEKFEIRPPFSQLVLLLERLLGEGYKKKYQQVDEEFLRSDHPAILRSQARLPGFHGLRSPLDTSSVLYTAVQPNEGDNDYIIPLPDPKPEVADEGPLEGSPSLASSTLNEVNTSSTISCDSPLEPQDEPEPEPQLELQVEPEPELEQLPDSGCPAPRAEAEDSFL

What is called IC50 is the concentration that inhibits the measured activity by half. Higher therefore signals weaker potency. On to `NC(=O)c1c(-c2cccc(NC(=O)Nc3cccc(C(F)(F)F)c3)c2)[nH]c2ccccc12` [Compound 8, 2-{3-[({[3-(trifluoromethyl)phenyl]amino}carbonyl)amino]phenyl}-1H-indole-3-carboxamide], for which the IC50 in assay [1] was above 10000 nM.
`Cc1ccc(F)c(C(=O)Nc2ccc(-c3[nH]c4ccccc4c3C(N)=O)cc2)c1` [Compound 6, 2-{4-[(2-fluoro-5-methylbenzoyl)amino]phenyl}-1H-indole-3-carboxamide] registered an IC50 in assay [1] above 10000 nM.
For the molecule `CCc1cccc(NC(=O)Nc2ccc(-c3[nH]c4ccccc4c3C(N)=O)cc2)c1` [Compound 4, 2-[4-({[(3-ethylphenyl)amino]carbonyl}amino)phenyl]-1H-indole-3-carboxamide], the IC50 in assay [2] was 37 nM; in assay [1], 7 nM.
In assay [1], `Cc1cccc(NC(=O)Nc2cccc(-c3[nH]c4ccccc4c3C(N)=O)c2)c1` [Compound 7, 2-[3-({[(3-methylphenyl)amino]carbonyl}amino)phenyl]-1H-indole-3-carboxamide] gave a half-maximal inhibitory concentration (IC50) above 10000 nM.
Consider `Cc1ccc(F)c(NC(=O)Nc2ccc(-c3[nH]c4ccccc4c3C(N)=O)cc2)c1` [Compound 3, 2-[4-({[(2-fluoro-5-methylphenyl)amino]carbonyl}amino)phenyl]-1H-indole-3-carboxamide], for which the values for the IC50 in assay [2] and in assay [1] were 267 nM and 17 nM, respectively.
Consider `Cc1cccc(NC(=O)Nc2ccc(-c3[nH]c4ccccc4c3C(N)=O)cc2)c1` [Compound 1, 2-[4-({[(3-methylphenyl)amino]carbonyl}amino)phenyl]-1H-indole-3-carboxamide], for which the IC50 was 140 nM in assay [2] and 13 nM in assay [1].
Consider `NC(=O)c1c(-c2ccc(NC(=O)Nc3cccc(C(F)(F)F)c3)cc2)[nH]c2ccccc12` [Compound 2, 2-{4-[({[3-(trifluoromethyl)phenyl]amino}carbonyl)amino]phenyl}-1H-indole-3-carboxamide], for which the results for the half-inhibitory concentration (IC50) in assay [2] and in assay [1] were 61 nM and 7 nM, respectively.
For the molecule `Cc1ccc(F)c(C(=O)Nc2cccc(-c3[nH]c4ccccc4c3C(N)=O)c2)c1` [Compound 10, 2-{3-[(2-fluoro-5-methylbenzoyl)amino]phenyl}-1H-indole-3-carboxamide], the IC50 in assay [1] was above 10000 nM.
On to `Cc1ccoc1C(=O)Nc1cccc(-c2[nH]c3ccccc3c2C(N)=O)c1` [Compound 9, 2-{3-[(3-methyl-2-furoyl)amino]phenyl}-1H-indole-3-carboxamide], for which the half-maximal inhibitory concentration (IC50) in assay [2] and in assay [1] was above 10000 nM each time.
Turning to `Cc1ccoc1C(=O)Nc1ccc(-c2[nH]c3ccccc3c2C(N)=O)cc1` [Compound 5, 2-{4-[(3-methyl-2-furoyl)amino]phenyl}-1H-indole-3-carboxamide], the IC50 in assay [1] was above 10000 nM.

For the origin of these results see patent US9403803B2, “Indole-3-carboxamides as kinase inhibitors” (Allergan, Inc., priority 2014, dated 2016).
